± gives the standard deviation of the averaged measurements.
Assays:
Conditions in all cases: 24 h
U-2 OS [1] = test: intracellular GSH:GSSG ratio (calculated); higher = more reduced glutathione pool
Method: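 Intracellular glutathione in U-2 OS cells after 24 h compound treatment at 5, 10 and 20 uM (some at 40 and 80 uM). Total glutathione and GSSG were measured with the GSH/GSSG-Glo kit, and the GSH:GSSG ratio was calculated. Mean of five technical replicate plates.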

U-2 OS [2] = test: cell viability (CellTiter-Glo) relative to DMSO (% of control); higher = more viable
Method: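 Cell viability of U-2 OS cells by CellTiter-Glo after 24 h compound treatment at 5, 10 and 20 uM (some at 40 and 80 uM), measured in parallel with the glutathione assay, as percent of DMSO control. Five technical replicate plates, averaged.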

U-2 OS [3] = test: total intracellular glutathione (GSH + GSSG) relative to DMSO (% of control); higher = more glutathione
Method: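 Total intracellular glutathione (GSH + GSSG) in U-2 OS cells by GSH/GSSG-Glo after 24 h compound treatment at 5, 10 and 20 uM (some at 40 and 80 uM), as percent of DMSO control. Five technical replicate plates, averaged.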

U-2 OS [4] = test: cell painting activity score (Mahalanobis distance from DMSO wells); higher = stronger morphological phenotype
Procedure, shortened: (§1)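 In this cell painting assay, roughly 1,500 U-2 OS cells per well in 384-well plates were pin-tool treated at 37 °C for 24 h, typically at six 2-fold steps from 20 μM down to 625 nM. Cells were stained with MitoTracker, concanavalin A, phalloidin, wheat germ agglutinin, Hoechst and SYTO 14, imaged on an Opera Phenix, and analysed in CellProfiler with normalization to same-plate DMSO cells. Reported values are means of four replicate plates, with the activity score defined as the Mahalanobis distance from DMSO wells and cell count defined relative to DMSO wells.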

U-2 OS [5] = test: relative cell count vs DMSO (cell painting) (fraction of DMSO control); higher = more cells remaining (less cytotoxic)
Procedure, shortened: as §1

Row | Structure (SMILES) | intracellular GSH:GSSG ratio (U-2 OS [1]; 5 µM) | intracellular GSH:GSSG ratio (U-2 OS [1]; 10 µM) | intracellular GSH:GSSG ratio (U-2 OS [1]; 20 µM) | cell viability (U-2 OS [2]; 5 µM) | cell viability (U-2 OS [2]; 10 µM) | cell viability (U-2 OS [2]; 20 µM) | total intracellular glutathione (U-2 OS [3]; 5 µM) | total intracellular glutathione (U-2 OS [3]; 10 µM) | total intracellular glutathione (U-2 OS [3]; 20 µM) | cell painting activity score (U-2 OS [4]; 0.625 µM) | cell painting activity score (U-2 OS [4]; 1.25 µM) | cell painting activity score (U-2 OS [4]; 2.5 µM) | cell painting activity score (U-2 OS [4]; 5 µM) | cell painting activity score (U-2 OS [4]; 10 µM) | cell painting activity score (U-2 OS [4]; 20 µM) | relative cell count (U-2 OS [5]; 0.625 µM) | relative cell count (U-2 OS [5]; 1.25 µM) | relative cell count (U-2 OS [5]; 2.5 µM) | relative cell count (U-2 OS [5]; 5 µM) | relative cell count (U-2 OS [5]; 10 µM) | relative cell count (U-2 OS [5]; 20 µM) | intracellular GSH:GSSG ratio (U-2 OS [1]; 40 µM) | intracellular GSH:GSSG ratio (U-2 OS [1]; 80 µM) | cell viability (U-2 OS [2]; 40 µM) | cell viability (U-2 OS [2]; 80 µM) | total intracellular glutathione (U-2 OS [3]; 40 µM) | total intracellular glutathione (U-2 OS [3]; 80 µM)
1 | C[C@@H]1CC[C@@]2(OC1)O[C@H]1[C@@H](O)[C@H]3[C@@H]4CC[C@H]5C[C@@H](O[C@@H]6O[C@H](CO)[C@H](O[C@@H]7O[C@H](CO)[C@@H](O)[C@H](O[C@@H]8OC[C@@H](O)[C@H](O)[C@H]8O)[C@H]7O[C@@H]7O[C@H](CO)[C@H](O)[C@H](O[C@@H]8O[C@H](CO)[C@@H](O)[C@H](O)[C@H]8O)[C@H]7O)[C@H](O)[C@H]6O)[C@H](O)C[C@]5(C)[C@H]4CC[C@]3(C)[C@H]1[C@@H]2C | 13.7 | 20.4 | 11.7 | 64.5 ± 5.7 | 36.8 ± 12 | 8.23 ± 3.5 | 76.2 ± 7.3 | 45.1 ± 18 | 21 ± 4.2 | 7.99 | 7.32 | 7.71 | 8.51 | 13.6 | 28.6 | 0.85 | 0.742 | 0.753 | 0.19 | 0.117 | 0.0498 | – | – | – | – | – | –
2 | C=CC(=O)Nc1cccc(Nc2nc(Nc3ccc(Oc4ccnc(C(=O)NC)c4)cc3)ncc2F)c1 | 17.7 | 5.85 | 2.15 | 75.8 ± 3.4 | 59.5 ± 6.1 | 1.84 ± 1.1 | 64.2 ± 2 | 55.9 ± 4.7 | 5.78 ± 1.6 | 4.92 | 4.2 | 6.51 | 4.99 | 8.06 | 9.39 | 1 | 0.96 | 0.987 | 0.953 | 0.961 | 0.93 | – | – | – | – | – | –
3 | S=C(Nc1ccccc1)Nc1nc(-c2ccccc2)[n+](-c2ccccc2)s1 | 27.8 | 18.7 | 29 | 91.8 ± 2.3 | 106 ± 3.2 | 97.5 ± 6.9 | 116 ± 14 | 96.7 ± 11 | 130 ± 9.9 | 3.57 | 4.45 | 5.25 | 3.52 | 6.94 | 3.81 | 0.907 | 0.951 | 0.994 | 0.926 | 0.955 | 0.94 | – | – | – | – | – | –
4 | COc1cc(/C=C/C(=O)CC(=O)/C=C/c2ccc(O)c(OC)c2)ccc1O | 16.9 | 10.3 | 6.3 | 101 ± 7.1 | 90 ± 6.6 | 70.2 ± 3.2 | 112 ± 20 | 116 ± 3.4 | 100 ± 5.8 | 3.83 | 3.58 | 4.65 | 6.94 | 9.69 | 10.7 | 0.919 | 0.894 | 0.876 | 0.892 | 0.772 | 0.482 | 4.46 | 0.7 | 40.9 ± 2.8 | 36.2 ± 3.8 | 44.2 ± 2.1 | 41.5 ± 3.5
5 | O=[N+]([O-])c1c(Sc2ncnc3nc[nH]c23)cc(Cl)c2nsnc12 | 9.07 | 1.18 | 2.18 | 41.6 ± 9.6 | 5.86 ± 1.9 | 12 ± 2.9 | 74 ± 19 | 32.4 ± 4.7 | 43.3 ± 3.9 | 3.42 | 4.43 | 4.96 | 4.68 | 3.76 | 3.8 | 0.924 | 0.936 | 0.903 | 0.912 | 0.96 | 0.913 | – | – | – | – | – | –
6 | C=C1C(=O)O[C@H](CCC)[C@H]1C(=O)O | 21.5 | 22.5 | 22.9 | 91.7 ± 2.8 | 98.6 ± 6 | 95.5 ± 5.5 | 95.1 ± 3.1 | 90.6 ± 6.3 | 94.2 ± 5.9 | 3.78 | 4.58 | 3.59 | 4.83 | 3.69 | 5.28 | 1.06 | 1.04 | 1.06 | 0.973 | 1.07 | 1.01 | 25.2 | 20.4 | 105 ± 3.7 | 105 ± 7.9 | 97.6 ± 5.4 | 100 ± 4
7 | O=[N+]([O-])c1ccc(-c2nnc(SC3=CS(=O)(=O)c4ccccc43)o2)cc1 | 10.4 | 3.4 | 3.08 | 84.5 ± 5.8 | 33.5 ± 5.2 | 49.4 ± 2.6 | 119 ± 3.7 | 38.4 ± 3.2 | 46.6 ± 3.2 | 6.12 | 8.55 | 13.1 | 17.1 | 14.6 | 17.5 | 0.934 | 0.893 | 0.773 | 0.394 | 0.225 | 0.29 | – | – | – | – | – | –

Source: the supplement of paper PMC10011410
